From ChEMBL document CHEMBL4699511, “Cedrol, a Sesquiterpene Alcohol, Enhances the Anticancer Efficacy of Temozolomide in Attenuating Drug Resistance via Regulation of the DNA Damage Response and MGMT Expression” (J Nat Prod, 2020) come the findings set out here.

The source made the active and inactive calls. The calls are words filed in the database; no cut-off is given here.

Data set [1] concerns DBTRG-05MG. Put plainly: Induction of cell cycle arrest in human DBTRG-05MG cells assessed as accumulation at S phase at 206 uM after 24 hrs by propidium iodide staining based flow cytometric analysis (reference value: 22.76 +/- 1.56%). In kind it is functional.
Data set [2] relates to DBTRG-05MG. Put plainly: Induction of cell cycle arrest in human DBTRG-05MG cells assessed as accumulation at G2/M phase at 206 uM after 48 hrs by propidium iodide staining based flow cytometric analysis (reference value: 30.08 +/- 0.1%). In kind it is functional.
Data set [3] concerns RG2. Put plainly: Induction of cell cycle arrest in rat RG2 cells assessed as accumulation at S phase at 206 uM after 48 hrs by propidium iodide staining based flow cytometric analysis (reference value: 20.15 +/- 2.44%). It is filed as functional.
Data set [4] concerns RG2. Put plainly: Induction of cell cycle arrest in rat RG2 cells assessed as accumulation at G2/M phase at 206 uM after 48 hrs by propidium iodide staining based flow cytometric analysis (reference value: 20.04 +/- 0.55%). In kind it is functional.
The subject of data set [5] is RG2. In words: Induction of cell cycle arrest in rat RG2 cells assessed as CyclinA expression at 206 uM after 48 hrs by Western blot analysis (reference value: 1). In kind it is functional.
Data set [6] has as its target MAP kinase p38 (Homo sapiens) (UniProt O15264+Q15759+Q16539+P53778). Put plainly: Inhibition of p38 phosphorylation at Tyr182 residues in human DBTRG-05MG cells at 206 uM after 48 hrs by Western blot analysis (reference value: 1). It is filed as cell-based.
Data set [7] concerns RG2. Put plainly: Induction of apoptosis in rat RG2 cells assessed as increase in chromatin condensation at 206 uM after 48 hrs by TUNEL assay. It is filed as functional, cell-based.
Data set [8] concerns DBTRG-05MG. Put plainly: Induction of apoptosis in human DBTRG-05MG cells assessed as Bax expression at 206 uM after 48 hrs by Western blot analysis (reference value: 1). In kind it is functional.
The test system of data set [9] is DBTRG-05MG. In words: Induction of apoptosis in human DBTRG-05MG cells assessed as phosphorylated caspace-9 expression at 206 uM after 48 hrs by Western blot analysis (reference value: 1). In kind it is functional.
Data set [10] relates to RG2. Put plainly: Induction of apoptosis in rat RG2 cells assessed as Bcl2 expression at 206 uM after 48 hrs by Western blot analysis (reference value: 1). In kind it is functional.
Data set [11] concerns RG2. Put plainly: Induction of apoptosis in rat RG2 cells assessed as phosphorylated caspace-9 expression at 206 uM after 48 hrs by Western blot analysis (reference value: 1). In kind it is functional.
For data set [12], the system named is DBTRG-05MG. In words: Induction of DNA damage in human DBTRG-05MG cells assessed as ATR phosphorylation at ser428 residues at 206 uM after 48 hrs by Western blot analysis (reference value: 1). In kind it is functional.
Data set [13] relates to RG2. Put plainly: Induction of DNA damage in rat RG2 cells assessed as H2A.X phosphorylation at ser139 at 206 uM after 48 hrs by Western blot analysis (reference value: 1). In kind it is functional.
Data set [14] has as its system DBTRG-05MG. Put plainly: Synergistic cytotoxicity against human DBTRG-05MG cells assessed as synergistic effect index at 89.9 uM after 48 hrs in presence of 103 uM TMZ by MTT assay. It is filed as functional.
The subject of data set [15] is RG2. In words: Synergistic cytotoxicity against rat RG2 cells assessed as synergistic effect index at 112.4 uM after 48 hrs in presence of 309 uM TMZ by MTT assay. It is filed as functional.
Data set [16] deals with RG2. In words: Synergistic cytotoxicity against rat RG2 cells assessed as synergistic effect index at 112.4 uM after 48 hrs in presence of 515.1 uM TMZ by MTT assay. It is filed as functional.
Data set [17] concerns RG2. In words: Synergistic cytotoxicity against rat RG2 cells assessed as combination index at 89.9 uM after 48 hrs in presence of 515.1 uM TMZ by MTT assay. It is filed as functional.
Data set [18] is described as follows: Synergistic cytotoxicity against rat CTX TNA2 cells assessed as synergistic effect index at 134.9 uM after 48 hrs in presence of 206 uM TMZ by MTT assay. The settings on record: ctx tna2, 48 h. In kind it is cell-based.
Data set [19] is described as follows: Synergistic cytotoxicity against rat CTX TNA2 cells assessed as combination index at 89.9 uM after 48 hrs in presence of 412.1 uM TMZ by MTT assay. It is filed as cell-based. The settings on record: ctx tna2, 48 h.
Data set [20] in a line: Synergistic cytotoxicity against rat CTX TNA2 cells assessed as combination index at 112.4 uM after 48 hrs in presence of 309 uM TMZ by MTT assay. In kind it is cell-based. The settings on record: ctx tna2, 48 h.
Data set [21] in a line: Synergistic cytotoxicity against rat CTX TNA2 cells assessed as combination index at 134.9 uM after 48 hrs in presence of 206 uM TMZ by MTT assay. In kind it is cell-based. Conditions: ctx tna2, 48 h.
In data set [22] the test system is RG2. In words: Induction of cell cycle arrest in rat RG2 cells assessed as accumulation at G2/M phase at 112.4 uM after 12 hrs by propidium iodide staining based flow cytometric analysis (reference value: 20.04 +/- 0.55%). It is filed as functional.
The test system of data set [23] is RG2. Put plainly: Induction of cell cycle arrest in rat RG2 cells assessed as accumulation at G2/M phase at 112.4 uM after 12 hrs in presence of TMZ by propidium iodide staining based flow cytometric analysis (reference value: 20.04 +/- 0.55%). It is filed as functional.
The test system of data set [24] is DBTRG-05MG. Put plainly: Induction of cell cycle arrest in human DBTRG-05MG cells assessed as CyclinD1 expression at 112.4 uM after 48 hrs by Western blot analysis (reference value: 1). In kind it is functional.
Data set [25] deals with DBTRG-05MG. In words: Induction of cell cycle arrest in human DBTRG-05MG cells assessed as CDK4 expression at 112.4 uM after 48 hrs in presence of TMZ by Western blot analysis (reference value: 1). It is filed as functional.
In data set [26] the target is Serine/threonine-protein kinase AKT (Homo sapiens) (UniProt P31751+Q9Y243+P31749). In words: Inhibition of AKT phosphorylation at S473 residues in human DBTRG-05MG cells at 112.4uM after 48 hrs in presence of TMZ by Western blot analysis. It is filed as cell-based.
Sequence of Serine/threonine-protein kinase AKT (Homo sapiens) (P31749 whole entry, looked up): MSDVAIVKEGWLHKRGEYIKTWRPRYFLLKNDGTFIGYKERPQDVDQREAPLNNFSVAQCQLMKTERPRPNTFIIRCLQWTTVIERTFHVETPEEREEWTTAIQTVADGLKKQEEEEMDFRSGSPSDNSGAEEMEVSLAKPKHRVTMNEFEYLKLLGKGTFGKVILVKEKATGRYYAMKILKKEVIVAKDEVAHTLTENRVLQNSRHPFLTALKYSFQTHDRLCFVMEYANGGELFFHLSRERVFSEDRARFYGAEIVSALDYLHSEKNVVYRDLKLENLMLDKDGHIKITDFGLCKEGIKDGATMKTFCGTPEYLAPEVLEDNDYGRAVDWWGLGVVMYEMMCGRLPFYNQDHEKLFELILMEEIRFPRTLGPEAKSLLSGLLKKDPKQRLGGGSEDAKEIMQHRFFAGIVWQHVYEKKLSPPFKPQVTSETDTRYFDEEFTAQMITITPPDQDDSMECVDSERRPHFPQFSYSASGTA
Sequence of Serine/threonine-protein kinase AKT (Homo sapiens) (P31751 whole entry, looked up): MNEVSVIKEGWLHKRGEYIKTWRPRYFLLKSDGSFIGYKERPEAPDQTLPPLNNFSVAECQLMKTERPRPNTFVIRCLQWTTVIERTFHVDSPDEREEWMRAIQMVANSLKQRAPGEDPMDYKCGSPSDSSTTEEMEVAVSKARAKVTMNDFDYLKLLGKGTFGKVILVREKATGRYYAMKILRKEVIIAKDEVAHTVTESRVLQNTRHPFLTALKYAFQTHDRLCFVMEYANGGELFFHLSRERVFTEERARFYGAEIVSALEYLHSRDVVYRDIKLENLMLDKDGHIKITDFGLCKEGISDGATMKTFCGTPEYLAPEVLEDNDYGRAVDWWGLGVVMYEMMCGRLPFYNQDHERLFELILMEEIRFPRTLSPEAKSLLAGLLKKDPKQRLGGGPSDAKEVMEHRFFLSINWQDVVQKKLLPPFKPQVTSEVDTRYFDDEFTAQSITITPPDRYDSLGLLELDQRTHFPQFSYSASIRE
Sequence of Serine/threonine-protein kinase AKT (Homo sapiens) (Q9Y243 whole entry, looked up): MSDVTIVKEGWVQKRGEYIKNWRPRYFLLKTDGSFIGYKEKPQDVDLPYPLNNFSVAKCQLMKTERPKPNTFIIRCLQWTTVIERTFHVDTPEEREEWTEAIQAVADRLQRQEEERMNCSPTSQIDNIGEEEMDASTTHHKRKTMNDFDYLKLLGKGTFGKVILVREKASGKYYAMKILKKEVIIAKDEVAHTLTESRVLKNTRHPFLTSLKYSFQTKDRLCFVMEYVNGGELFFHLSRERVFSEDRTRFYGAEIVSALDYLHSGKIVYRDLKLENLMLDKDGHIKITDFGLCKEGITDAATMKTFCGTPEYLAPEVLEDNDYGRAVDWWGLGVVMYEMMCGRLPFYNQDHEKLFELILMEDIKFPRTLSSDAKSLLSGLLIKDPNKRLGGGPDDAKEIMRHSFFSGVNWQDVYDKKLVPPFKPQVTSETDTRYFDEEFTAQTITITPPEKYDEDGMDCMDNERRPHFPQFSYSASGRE
In data set [27] the test system is RG2. Put plainly: Inhibition of AKT phosphorylation at S473 residues in rat RG2 cells at 112.4uM after 48 hrs in presence of TMZ by Western blot analysis. In kind it is cell-based.
The test system of data set [28] is DBTRG-05MG. In words: Induction of apoptosis in human DBTRG-05MG cells assessed as phosphorylated PARP expression at 112.4 uM after 48 hrs by Western blot analysis (reference value: 1). It is filed as functional.
For data set [29], the system named is RG2. In words: Induction of apoptosis in rat RG2 cells assessed as Bcl2 expression at 112.4 uM after 48 hrs in presence of TMZ by Western blot analysis (reference value: 1). It is filed as functional.
The test system of data set [30] is RG2. In words: Induction of apoptosis in rat RG2 cells assessed as phosphorylated caspace-3 expression at 112.4 uM after 48 hrs in presence of TMZ by Western blot analysis (reference value: 1). In kind it is functional.
The subject of data set [31] is DBTRG-05MG. In words: Induction of DNA damage in human DBTRG-05MG cells assessed as ATM phosphorylation at ser1981 residues at 112.4 uM after 48 hrs in presence of TMZ by Western blot analysis (reference value: 1). In kind it is functional.
Data set [32] relates to DBTRG-05MG. Put plainly: Induction of DNA damage in human DBTRG-05MG cells assessed as ATR phosphorylation at ser428 residues at 112.4 uM after 48 hrs in presence of TMZ by Western blot analysis (reference value: 1). In kind it is functional.
In data set [33] the test system is DBTRG-05MG. Put plainly: Inhibition of TMZ-induced drug resistance in human DBTRG-05MG cells assessed as reduction in MGMT protein expression at 112.4 uM after 48 hrs by Immunohistochemistry method. In kind it is functional, cell-based.

For the compound `Cn1nnc2c(C(N)=O)ncn2c1=O` [TEMOZOLOMIDE], the Activity came to 25.43% with DBTRG-05MG [1], 53.64% in the data set on DBTRG-05MG [2], 18.32% in the data set with RG2 [3] and 54.71% with RG2 [4]. Moreover, the “fold change (FC)” value worked out at 1.9 in the data set on RG2 [5]; 1.2 in [6]; 1.4 with DBTRG-05MG [8]; 0.3 in the data set with DBTRG-05MG [9]; 1.3 in the data set with RG2 [10]; 0.8 in the data set with RG2 [11]. Further, the figures for the “fold change (FC)” value with DBTRG-05MG [12] and in the data set with RG2 [13] were 1.5 and 1.1, respectively. In addition, the outcome in the data set with RG2 [7] was Active.

Regarding `C[C@@H]1CC[C@H]2C(C)(C)[C@H]3C[C@@]12CC[C@@]3(C)O` [CEDROL], the Activity_index with DBTRG-05MG [14] is recorded as 0.66; with RG2 [15] it was 0.85; in the data set on RG2 [16], 0.83; in [18], 0.43. In addition, the CI is 1.38 in the data set on RG2 [17], 1.11 in data set [19], 1.09 in data set [20] and 1.13 in [21]. Moreover, the Activity turned out to be 18.1% in the data set with RG2 [22] and 18.79% in the data set with RG2 [23]. Moreover, the “fold change (FC)” value is 0.7 in the data set on DBTRG-05MG [24]; 0.6 in the data set with DBTRG-05MG [25]; 0.5 in data set [26]; 0.5 in the data set with RG2 [27]; 0.7 in the data set on DBTRG-05MG [28]; 0.9 in the data set with RG2 [29]. Further, the “fold change (FC)” value in the data set with RG2 [30] turned out to be 1.2; in the data set with DBTRG-05MG [31], 2.9; in the data set on DBTRG-05MG [32], 2.3. In addition, the inhibition result with DBTRG-05MG [33] was “Active”.
